{
  "source": "patent US20260207626A1",
  "about": "“SYNTHETIC TRITERPENOIDS AND COMPOSITIONS THEREOF IN WEIGHT MANAGEMENT, SKELETAL MUSCLE FUNCTION, AND APPETITE SUPPRESSION” (The Board of Regents of the University of Texas System, priority 2022, published 2026)",
  "assay": "Body composition by NMR at 42 days",
  "format": "in vivo, C57BL/6J mice",
  "conditions": "all groups",
  "procedure": "FIG. 24—Body composition at 42 days. Body composition was measured by NMR. C57BL/6J mice were fed a HFD with or without incorporation of CDDO-EA (diet containing 0.04% CDDO-EA) or LFD or HFD pair-fed for 6 weeks (n=5). BW=body weight. Data are represented as mean±SEM (Two-way Repeated Measures ANOVA).\nC57BL/6J mice (6-8 weeks old, male, strain #000664, The Jackson Laboratory) were divided into four (4) groups (i)-(iv)): (i) ad libitum Low fat caloric content (LFD-10% of total calories from fat caloric content, #TD.08806, Envigo), (ii) ad libitum HFD (60% of total calories from fat caloric content, #TD.06414, Envigo), (iii) HFD+CDDO-EA (diet containing 0.04% CDDO-EA), and (iv) HFD pair-fed to food intake of mice fed HFD+CDDO-EA. The study was for 6 weeks (42 days) (performed at Vanderbilt Metabolic Mouse Phenotyping Center (VMMPC)). Mice were singly housed in a Promethion Metabolic Analyzer and were monitored continuously for 7 days to assess feeding and EE.",
  "data": [
    {"molecule": "CCNC(=O)[C@]12CCC(C)(C)C[C@H]1C1C(=O)C=C3[C@@]4(C)C=C(C#N)C(=O)C(C)(C)[C@@H]4CC[C@@]3(C)[C@]1(C)CC2", "note": "(stereo partly drawn) [CDDO-EA, (4aS,6aR,6bS,8aR,12aS,14bS)-11-cyano-N-ethyl-2,2,6a,6b,9,9,12a-heptamethyl-10,14-dioxo-1,3,4,5,6,6a,6b, 7,8,8a,9,10,12a, 14,14a, 14b-hexadecahydropicene-4a (2H)-carboxamide]", "values": [
      {"measurement": "lean mass", "value": "no difference in lean mass between the groups"}
    ]}
  ]
}
